The values that follow come from patent US20240270762A1, “PENICILLIN-BINDING PROTEIN INHIBITORS” (priority 2021, published 2024).

In brackets after ≈: the same amount, converted by molar mass. Where only a bound is given, the exact number is not on record here.

One assay deals with N. gonorrhoeae CDC-0197. The assay can be described thus: Liquid broth MIC in Fastidious broth. Particulars: Neisseria gonorrhoeae, CDC0197, read-out: Minimum Inhibitory Concentration, CDC-0197.
A further assay has as its system N. gonorrhoeae MS11. The assay can be described thus: Liquid broth MIC in Fastidious broth. Particulars: Neisseria gonorrhoeae, MS11, read-out: Minimum Inhibitory Concentration, MS11.
Another assay has as its system N. gonorrhoeae WHO Q. The assay can be described thus: Liquid broth MIC in Fastidious broth. Particulars: Neisseria gonorrhoeae, read-out: Minimum Inhibitory Concentration, WHO Q.
In assay [1] the target is T1, PBP1a from Acinetobacter baumannii (ATCC 19606) (Acinetobacter baumannii, UniProt A0ABX6CK30).
T1 sequence (A0ABX6CK30 1-851): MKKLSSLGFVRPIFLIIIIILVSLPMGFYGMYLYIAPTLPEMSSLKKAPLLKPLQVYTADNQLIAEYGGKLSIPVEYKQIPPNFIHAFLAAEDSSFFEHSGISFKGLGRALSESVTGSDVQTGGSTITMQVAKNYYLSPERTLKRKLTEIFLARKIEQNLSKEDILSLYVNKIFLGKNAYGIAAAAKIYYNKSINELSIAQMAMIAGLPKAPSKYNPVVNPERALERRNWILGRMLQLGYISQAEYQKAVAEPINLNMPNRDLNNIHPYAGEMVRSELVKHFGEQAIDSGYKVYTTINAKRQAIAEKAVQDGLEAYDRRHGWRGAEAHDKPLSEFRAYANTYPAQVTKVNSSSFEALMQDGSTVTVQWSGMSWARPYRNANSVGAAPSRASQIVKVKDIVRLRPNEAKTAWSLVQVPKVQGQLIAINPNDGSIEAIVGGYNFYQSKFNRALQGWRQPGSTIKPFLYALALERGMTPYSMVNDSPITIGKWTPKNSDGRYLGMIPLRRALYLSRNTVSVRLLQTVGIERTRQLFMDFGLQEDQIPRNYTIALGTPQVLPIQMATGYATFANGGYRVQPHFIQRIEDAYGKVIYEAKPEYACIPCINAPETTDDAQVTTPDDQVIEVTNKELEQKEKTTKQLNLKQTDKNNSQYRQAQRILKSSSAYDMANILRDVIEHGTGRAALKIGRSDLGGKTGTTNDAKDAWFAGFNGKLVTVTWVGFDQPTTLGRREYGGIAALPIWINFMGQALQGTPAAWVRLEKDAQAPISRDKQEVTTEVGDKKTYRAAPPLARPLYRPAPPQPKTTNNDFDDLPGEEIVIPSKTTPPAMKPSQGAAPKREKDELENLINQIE
The assay is described as follows: Bocillin-FL fluorescence polarization competition binding, A. baumannii PBP1a. Particulars: fluorescence polarization competition binding assay using Bocillin-FL; read-out: A. baumannii PBP1a Potency. In a few lines: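 Purified PBP was preincubated with inhibitor (E. coli PBP3 1.5 μM, 30 min; P. aeruginosa PBP3 0.75 μM, A. baumannii PBP3 0.2 μM and PBP1a 1 μM, 15 min), then Bocillin-FL (0.1 μM; 0.05 μM for PBP1a) added and FP read up to 60 min. EC50 = 50% loss of bound probe.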
(Fluorescence polarisation rises when a labelled molecule tumbles more slowly, as on binding a larger partner.)

The next assay relates to N. gonorrhoeae WHO L. The assay is described as follows: Liquid broth MIC in Fastidious broth. To be noted: Neisseria gonorrhoeae, read-out: Minimum Inhibitory Concentration, WHO L.
For another assay, the system named is N. gonorrhoeae WHO M. The assay can be described thus: Liquid broth MIC in Fastidious broth. Particulars: Neisseria gonorrhoeae, read-out: Minimum Inhibitory Concentration, WHO M.
The next assay deals with N. gonorrhoeae WHO K. The assay can be described thus: Liquid broth MIC in Fastidious broth. Particulars: Neisseria gonorrhoeae, read-out: Minimum Inhibitory Concentration, WHO K.
In a further assay the test system is N. gonorrhoeae WHO X. The assay can be described thus: Liquid broth MIC in Fastidious broth. Particulars: Neisseria gonorrhoeae, read-out: Minimum Inhibitory Concentration, WHO X.
The next assay has as its system N. gonorrhoeae WHO Z. The assay can be described thus: Liquid broth MIC in Fastidious broth. Particulars: Neisseria gonorrhoeae, read-out: Minimum Inhibitory Concentration, WHO Z.

Procedure for N. gonorrhoeae WHO M: (§1) Liquid broth-based assays were used for antibacterial testing of PBP inhibitors in Neisseria gonorrhoeae. Briefly, cryo-preserved bacterial cultures of clinical strains were streaked for isolation on Chocolate Agar (72 g/L (2×) GC Agar Base (BD #228950) and 2% (2×) Hemoglobin was autoclaved at 121° C. for 20 minutes to sterilize. Once cooled to ˜50° C. the 2×GC Agar Base and 2× Hemoglobin solutions are combined and 1% IsoVitaleX Enrichment (BD #211876) was added to the solution). Strains were incubated at 36° C. and 5% CO2 to allow growth of colonies, 24 hours before inoculum preparation. 2-fold serial dilutions of test compounds were conducted in a 96 well plate with a final volume of 75 μL per well at 2-fold the final desired concentration in Fastidious broth (Remel #R07664). For preparation of assay inoculum, a direct suspension was prepared by aseptically swabbing 10-15 colonies from agar plates into culture tubes containing 2 mL of fresh sterile saline. After the dilution plates were set up, direct suspensions were then diluted in a cuvette containing sterile saline and the optical density was measured at 600 nm. Inocula were diluted such that 75 μL of this culture in Fastidious broth results in a starting bacterial concentration of 5×10^5 CFU/mL when added to the dilution plates. The plates were incubated for ˜24 hours at 36° C. and 5% CO2.
Procedure for N. gonorrhoeae WHO Q: as §1

As for `O=C(NCCCN1CCN(C(=O)N[C@@H](C(=O)N[C@H]2Cc3ccc(F)c(C(=O)O)c3OB2O)c2cc(F)c(O)c(O)c2Cl)C(=O)C1=O)c1ccncc1` [Example 294, (R)-3-((R)-2-(2-chloro-5-fluoro-3,4-dihydroxyphenyl)-2-(4-(3-(isonicotinamido)propyl)-2,3-dioxopiperazine-1-carboxamido)acetamido)-7-fluoro-2-hydroxy-3,4-dihydro-2H-benzo[e][1,2]oxaborinine-8-carboxylic acid], the MIC with N. gonorrhoeae CDC-0197 was above 64 mg/L; with N. gonorrhoeae MS11 it was 16 to 32 mg/L (≈ 21.5 to 43 µM); with N. gonorrhoeae WHO Q it was above 64 mg/L; in the assay on N. gonorrhoeae WHO L, above 64 mg/L; with N. gonorrhoeae WHO M it was 16 to 32 mg/L (≈ 21.5 to 43 µM); in the assay with N. gonorrhoeae WHO K, above 64 mg/L. Moreover, the MIC in the assay on N. gonorrhoeae WHO X was above 64 mg/L; in the assay on N. gonorrhoeae WHO Z, 16 to 32 mg/L (≈ 21.5 to 43 µM). In addition, the IC50 in [1] is above 250 µM.
Take `O=C(NCCCN1CCN(C(=O)NC(C(=O)N[C@H]2Cc3ccc(F)c(C(=O)O)c3OB2O)c2cc(F)c(O)c(O)c2Cl)C(=O)C1=O)c1ccncc1Cl` (stereo partly drawn) [Example 295, (3R)-3-(2-(2-chloro-5-fluoro-3,4-dihydroxyphenyl)-2-(4-(3-(3-chloroisonicotinamido)propyl)-2,3-dioxopiperazine-1-carboxamido)acetamido)-7-fluoro-2-hydroxy-3,4-dihydro-2H-benzo[e][1,2]oxaborinine-8-carboxylic acid]: the MIC with N. gonorrhoeae CDC-0197 is above 64 mg/L; with N. gonorrhoeae MS11, 16 to 32 mg/L (≈ 20.5 to 41.1 µM); in the assay with N. gonorrhoeae WHO Q, above 64 mg/L; in the assay with N. gonorrhoeae WHO L it was above 64 mg/L; in the assay with N. gonorrhoeae WHO M, 16 to 32 mg/L (≈ 20.5 to 41.1 µM); in the assay with N. gonorrhoeae WHO K, above 64 mg/L. The MIC with N. gonorrhoeae WHO X and in the assay on N. gonorrhoeae WHO Z was above 64 mg/L in each case. In addition, the IC50 in assay [1] was above 250 µM.
Consider `O=C(NCCCN1CCN(C(=O)NC(C(=O)N[C@H]2Cc3ccc(F)c(C(=O)O)c3OB2O)c2cc(F)c(O)c(O)c2Cl)C(=O)C1=O)c1ccc(O)c(Cl)c1` (stereo partly drawn) [Example 305, (3R)-3-(2-(4-(3-(3-chloro-4-hydroxybenzamido)propyl)-2,3-dioxopiperazine-1-carboxamido)-2-(2-chloro-5-fluoro-3,4-dihydroxyphenyl)acetamido)-7-fluoro-2-hydroxy-3,4-dihydro-2H-benzo[e][1,2]oxaborinine-8-carboxylic acid], for which the MIC in the assay with N. gonorrhoeae CDC-0197 was above 64 mg/L; with N. gonorrhoeae MS11 it was 16 to 32 mg/L (≈ 20.1 to 40.3 µM); with N. gonorrhoeae WHO Q, above 64 mg/L; in the assay on N. gonorrhoeae WHO L, above 64 mg/L; in the assay on N. gonorrhoeae WHO M, 16 to 32 mg/L (≈ 20.1 to 40.3 µM); in the assay with N. gonorrhoeae WHO K it was above 64 mg/L. Moreover, the MIC in the assay with N. gonorrhoeae WHO X and in the assay on N. gonorrhoeae WHO Z was above 64 mg/L each time. Further, the IC50 in assay [1] is above 250 µM.
Regarding `O=C(NCCS(=O)(=O)N1CCN(C(=O)N[C@@H](C(=O)N[C@H]2Cc3ccc(F)c(C(=O)O)c3OB2O)c2cc(F)c(O)c(O)c2Cl)C1=O)Nc1ccncc1` [Example 290, (R)-3-((R)-2-(2-chloro-5-fluoro-3,4-dihydroxyphenyl)-2-(2-oxo-3-((2-(3-(pyridin-4-yl)ureido)ethyl)sulfonyl)imidazolidine-1-carboxamido)acetamido)-7-fluoro-2-hydroxy-3,4-dihydro-2H-benzo[e][1,2]oxaborinine-8-carboxylic acid], the MIC in the assay on N. gonorrhoeae CDC-0197 is 16 to 32 mg/L (≈ 20.5 to 40.9 µM); in the assay on N. gonorrhoeae MS11, 16 to 32 mg/L (≈ 20.5 to 40.9 µM); with N. gonorrhoeae WHO Q, 16 to 32 mg/L (≈ 20.5 to 40.9 µM); with N. gonorrhoeae WHO L it was above 64 mg/L; in the assay on N. gonorrhoeae WHO M it was 16 to 32 mg/L (≈ 20.5 to 40.9 µM); in the assay on N. gonorrhoeae WHO K it was above 64 mg/L. For the same molecule, the MIC in the assay with N. gonorrhoeae WHO X was above 64 mg/L; with N. gonorrhoeae WHO Z, 4 to 8 mg/L (≈ 5.12 to 10.2 µM). The IC50 in assay [1] is above 250 µM.
Consider `O=C(NCCS(=O)(=O)N1CCN(C(=O)N[C@H](C(=O)N[C@H]2Cc3ccc(F)c(C(=O)O)c3OB2O)c2cc(F)c(O)c(O)c2Cl)C1=O)c1ccc(O)cc1` [Example 286, (R)-3-((S)-2-(2-chloro-5-fluoro-3,4-dihydroxyphenyl)-2-(3-((2-(4-hydroxybenzamido)ethyl)sulfonyl)-2-oxoimidazolidine-1-carboxamido)acetamido)-7-fluoro-2-hydroxy-3,4-dihydro-2H-benzo[e][1,2]oxaborinine-8-carboxylic acid], for which the MIC with N. gonorrhoeae CDC-0197, in the assay with N. gonorrhoeae MS11, with N. gonorrhoeae WHO Q, in the assay on N. gonorrhoeae WHO L, with N. gonorrhoeae WHO M and in the assay with N. gonorrhoeae WHO K was above 64 mg/L in each case. The MIC in the assay on N. gonorrhoeae WHO X and in the assay with N. gonorrhoeae WHO Z was above 64 mg/L in each case. The IC50 in assay [1] is above 250 µM.
Take `Cc1cc(C(=O)NCCCN2CCN(C(=O)N[C@@H](C(=O)N[C@H]3Cc4ccc(F)c(C(=O)O)c4OB3O)c3cc(F)c(O)c(O)c3Cl)C(=O)C2=O)ccn1` [Example 298, (R)-3-((R)-2-(2-chloro-5-fluoro-3,4-dihydroxyphenyl)-2-(4-(3-(2-methylisonicotinamido)propyl)-2,3-dioxopiperazine-1-carboxamido)acetamido)-7-fluoro-2-hydroxy-3,4-dihydro-2H-benzo[e][1,2]oxaborinine-8-carboxylic acid]: the MIC is above 64 mg/L in the assay with N. gonorrhoeae CDC-0197; 16 to 32 mg/L (≈ 21.1 to 42.2 µM) in the assay on N. gonorrhoeae MS11; above 64 mg/L with N. gonorrhoeae WHO Q; above 64 mg/L in the assay with N. gonorrhoeae WHO L; 16 to 32 mg/L (≈ 21.1 to 42.2 µM) in the assay with N. gonorrhoeae WHO M; above 64 mg/L in the assay with N. gonorrhoeae WHO K. Further, the MIC in the assay with N. gonorrhoeae WHO X and in the assay on N. gonorrhoeae WHO Z was above 64 mg/L each time. For the same molecule, in assay [1], the IC50 is above 250 µM.
As for `O=C(NCCCN1CCN(C(=O)N[C@@H](C(=O)N[C@H]2Cc3ccc(F)c(C(=O)O)c3OB2O)c2cc(F)c(O)c(O)c2Cl)C(=O)C1=O)c1ccncc1O` [Example 296, (R)-3-((R)-2-(2-chloro-5-fluoro-3,4-dihydroxyphenyl)-2-(4-(3-(3-hydroxyisonicotinamido)propyl)-2,3-dioxopiperazine-1-carboxamido)acetamido)-7-fluoro-2-hydroxy-3,4-dihydro-2H-benzo[e][1,2]oxaborinine-8-carboxylic acid], the MIC is above 64 mg/L in the assay on N. gonorrhoeae CDC-0197; 16 to 32 mg/L (≈ 21 to 42.1 µM) in the assay with N. gonorrhoeae MS11; above 64 mg/L in the assay on N. gonorrhoeae WHO Q; above 64 mg/L with N. gonorrhoeae WHO L; 16 to 32 mg/L (≈ 21 to 42.1 µM) in the assay on N. gonorrhoeae WHO M; above 64 mg/L with N. gonorrhoeae WHO K. For the same molecule, the MIC in the assay with N. gonorrhoeae WHO X and in the assay on N. gonorrhoeae WHO Z was above 64 mg/L in each case. The IC50 in assay [1] is above 250 µM.
On to `O=C(NCCS(=O)(=O)N1CCN(C(=O)N[C@@H](C(=O)N[C@H]2Cc3ccc(F)c(C(=O)O)c3OB2O)c2cc(F)c(O)c(O)c2Cl)C1=O)c1ccc(O)cc1` [Example 287, (R)-3-((R)-2-(2-chloro-5-fluoro-3,4-dihydroxyphenyl)-2-(3-((2-(4-hydroxybenzamido)ethyl)sulfonyl)-2-oxoimidazolidine-1-carboxamido)acetamido)-7-fluoro-2-hydroxy-3,4-dihydro-2H-benzo[e][1,2]oxaborinine-8-carboxylic acid], for which the MIC was 16 to 32 mg/L (≈ 20.5 to 40.9 µM) in the assay on N. gonorrhoeae CDC-0197; 4 to 8 mg/L (≈ 5.12 to 10.2 µM) in the assay with N. gonorrhoeae MS11; 4 to 8 mg/L (≈ 5.12 to 10.2 µM) with N. gonorrhoeae WHO Q; above 64 mg/L with N. gonorrhoeae WHO L; 4 to 8 mg/L (≈ 5.12 to 10.2 µM) in the assay on N. gonorrhoeae WHO M; 16 to 32 mg/L (≈ 20.5 to 40.9 µM) in the assay on N. gonorrhoeae WHO K. Also, the MIC with N. gonorrhoeae WHO X is above 64 mg/L; with N. gonorrhoeae WHO Z, 4 to 8 mg/L (≈ 5.12 to 10.2 µM). Moreover, in assay [1], the IC50 is above 250 µM.
